Source: patent publication US20230293488A1, “COMPOSITIONS AND METHODS OF USE OF ANTIBACTERIAL DRUG COMBINATIONS” (priority 2015, published 2023)
Values belong to the compound of their own block, whether it stands above or below them.

What was measured:
[1] = tested on: MRSA N315; test: MIC assay and FICI synergy determination (checkerboard); assay type: cell-based, Staphylococcus aureus; conditions: for MIC: Staphylococcus aureus, MRSA, read-out: MIC in MRSA N315
Description: (§1) Microbiological Studies: MRSA N315 was a gift from Dr. Steven Gill, University of Rochester, Rochester, NY, USA. S. aureus ATCC 29213 was acquired from the American Type Culture Collection. De-identified clinical MRSA isolates were selected at random from the clinical isolate strain bank at Barnes-Jewish Hospital, St. Louis, MO, USA. Minimal inhibitory concentration (MIC) assays for inhibition of growth were performed following the recommendations of the Clinical and Laboratory Standards Institute (CLSI)^43. Briefly, 23 antibacterial compounds (Supplemental Table 1) were selected based on coverage of all major drug classes, including three compounds not classified as antibiotics for human use, but with known antibacterial properties. Compounds were dissolved in dimethyl sulfoxide (DMSO) to a stock concentration of 50 mg/ml. Exceptions: Sulfometuron at 20 mg/ml in DMSO; Tobramycin, D-cycloserine, and colistin at 50 mg/ml in H2O and filtered at 2 μm. The 23 compounds were formulated into all 253 possible unique pairwise combinations at fixed ratios and at 100× concentrations in solvent. To increase the range of concentrations assayed for possible synergistic or antagonistic drug interactions (>2,000-fold), the drug stocks were arrayed into threefold dilution series down eight rows in 96-well Costar master drug plates, using a BioMek FX robotic liquid handler (Beckman Coulter, Inc.). Drugs were then mixed 1:100 into 96-well plates containing 200 μl/well of cation-adjusted Mueller-Hinton broth (CAMHB). All drug susceptibility assay wells were inoculated with ˜1 μl of mid-log phase bacterial culture at 0.5 McFarland standard (˜2×10^8 CFU/ml) and grown at 37° C. for 24 h. Endpoint growth at 37° C. after 24 h was determined by optical density at 600 nm ≥0.1 using a Synergy H1 reader (BioTek, Inc.).
Synergy of antibiotic combinations was determined using the fractional inhibitory concentration index (FICI) method ^57,58. By this method, the MIC of the antibiotic compound in combination is divided by the MIC of the compound alone, yielding the fractional contribution of each drug component in the combination. Quotients for all in a combination are summed and drug interactions scored using the formula: FICI=(MIC Acomb A B C)/MICagent A+(MIC Bcomb A B C)/MICagent B+(MIC Ccomb A B C)/MICagentC Select pairwise combinations against MRSA were then combined with each of the 21 remaining single drugs to make triple combinations, formulated and tested in identical fashion to the double combinations. Synergy of combinations was confirmed via triplicate measurements of drug conditions at the MIC. Based on its high synergy against MRSA N315 in the sparse screening, ME/PI/TZ and its constituents were selected for further characterization. Final susceptibility testing of ME/PI/TZ and its components was performed using twofold dilution from 128 to 2 μg/ml for each component

[2] = tested on: MRSA N315; test: Adaptation and cross-resistance assays (11-day passage); assay type: cell-based, Staphylococcus aureus
Description: Adaptation and Cross-resistance Assays: 414 MRSA N315 was grown in 150 μl/well of CAMHB with constant shaking at 37° C. and passaged over 11 days in identical 96-well plates containing replicate threefold dilutions of ME/PI/TZ, ME/PI, ME/TZ, PI/TZ, ME, PI, and TZ. Top concentrations of drug combinations were 33.3 μg/ml for each component, while top concentrations for single drugs was 100 μg/ml. To test for cell viability, at the end of the assay on day 11, all wells from the plate were pinned with a sterile 96-pin replicator and transferred to CAMHB only. After passage, plates were filled 1:1 with 30% CAMHB/glycerol and frozen at −80° C. for later analysis.
Growth rate of isolates over passages in each condition was determined by linear best-fit of logarithm-converted exponential growth phase. […] Adapted isolates were retrospectively chosen from each combination or single compound in wells showing an increase in MIC or growth rate, frozen isolates were streaked out on agar plates to obtain single colonies, re-grown in broth conditions identical to those in which they grew originally, and then re-inoculated in sterile 96-well plates identical to the original 11-day 431 plates.

[3] = tested on: MRSA N315; test: Neutropenic mouse peritonitis model of MRSA infection; assay type: in vivo, mice; conditions: for Result (Alive/Dead) / Result (survivors per group): 6 doses; for Result (Alive/Dead): one line per mouse; for Result (survivors per group): six days post-infection
Text: In vivo mouse model of MRSA infection: Animals. Outbred ICR female mice (6-8 weeks old, 17-25 g body weight; Harlan Laboratories, Inc., Indianapolis, IN, USA) were used. Mice were given Teklad 2019 Extruded Rodent Diet (Harlan Laboratories, Inc., Indianapolis, IN, USA) and water ad libitum. Mice were maintained in polycarbonate shoebox cages containing corncob (The Andersons, Inc., Maumee, OH, USA) and Alpha-dri (Shepherd Specialty Papers, Inc., Richland, MI, USA) bedding under 12-h light/12-h dark cycle at 22±1° C. All procedures involving animals were approved by the University of Notre Dame Institutional Animal Care and Use Committee.
Neutropenic mouse peritonitis model of MRSA infection. Doses of cyclophosphamide (100 μl of 50 mg/ml in 0.9% saline corresponding to 200 mg/kg; Alfa Aesar, Ward Hill, MA, USA) were given intraperitoneally (IP) at 4 days and 1 day prior to infection. The S. strain N315 was streaked onto Brain-Heart Infusion (BHI; Becton Dickson and Company, Sparks, MD, USA) agar and grown overnight at 36° C. The MRSA N315 bacterial inoculum was adjusted to approximately 1×10^8 CFU/ml (corresponding to OD540=0.5), then diluted to give 2×10^7CFU/ml. A 10% porcine mucin (Sigma-Aldrich, St. Louis, MO, USA) suspension was prepared and adjusted to pH 7. Immediately prior to infection, the bacterial inocula were diluted 1:1 with 10% mucin to a final concentration of 1×10^7CFU/ml in 5% mucin. The mice were then infected IP with 0.5 ml of this inoculum. In vivo dosing of compounds in mice was compared with mean or range peak human plasma concentrations of studied β-lactams^44,46,47,62,63.
Antibiotic preparation. Meropenem was obtained from AK Scientific, Inc. (Union City, CA, USA), piperacillin and tazobactam were obtained from Sigma-Aldrich Co. (St. Louis, MO, USA). Linezolid (CAS 165800-03-3) was obtained from AmplaChem (Carmel, IN, USA). Antibiotics were dissolved at a concentration of 16.67 mg/ml in 30% DMSO/30% propylene glycol/40% water. Linezolid was used as positive control and was prepared at 7.5 mg/ml. Vehicle (30% DMSO/30% propylene glycol/40% water) was included as negative control. The dosing formulations were sterilized by passing through 0.2 μm filter prior to injection.
(§2) Bacterial isolation from blood. Blood samples were checked for bacterial growth by plating and liquid culture. Whole blood (100 μl, three samples per group) was spread onto Brain-Heart Infusion (BHI) agar plates and incubated at 36° C. overnight. Colonies were counted and three colonies were selected, grown overnight in liquid BHI culture at 36° C., then mixed 1:1 with 30% LB-glycerol and stored at −80° C. The remaining three blood samples of each group (50 μl) was added to 5 ml BHI broth and incubated overnight at 36° C. When growth was noted, cultures were mixed 1:1 with 30% LB-glycerol and stored at −80° C.
Statistical Analyses: Data for minimal inhibitory concentrations (MICs) are derived from triplicate measurements. Adaptation data are taken from two replicate experiments for each drug combination condition. Data for qRT-PCR expression profiling are derived from three replicate experiments taken from three biological replicates each, with standard error of measurement calculated. Mice were treated in groups of six, and growth determination of bacteria determined via plate and broth culture in triplicate. Fisher's Exact test with Bonferroni correction was used for 8 independent tests (comparing each treatment to 610 vehicle).

[4] = tested on: mecA; test: Expression profiling with qRT-PCR; assay type: cell-based, Staphylococcus aureus; conditions: wild-type MRSA N315, relative to gyrB
Description: Expression profiling with qRT-PCR: Wild-type and adapted MRSA N315 isolates were grown in triplicate in 100 ml flasks to mid-log phase in CAMHB +/−piperacillin at 11.1 μg/ml or tazobactam at 33.3 μg/ml. To harvest cells at mid-log phase, each culture flask was split into 2×50 ml screw-cap tubes, spun down at 4° C. for 10 min at 3500 rpm, supernatant removed, and pellets combined carefully with a 2 ml serological pipette. 1 ml RNAprotect Bacteria Reagent (Qiagen, Valencia, CA, USA) was added to pellets to stabilize the RNA, vortexed briefly, and incubated for 5 min at RT. After incubation, tubes were spun again at 4° C. for 10 min at 3500 rpm, supernatant removed, and the pellets were stored at −80° C. […]
CFX protocol: 2 min@50° C., 2 min@95° C., (15 s@95° C., 1 min@60° C.)×40 cycles. Gene expression was determined using the ΔΔCt method of normalized quantitation 60, where Ct indicates the cycle number at which exponential growth phase increases above threshold fluorescence signal.

[5] = tested on: MRSA N315; test: In vitro MICs and FICI for MRSA N315 after passage in vivo; assay type: cell-based, Staphylococcus aureus
Text: We tested MRSA N315 cultures from blood drawn from mice treated with meropenem, piperacillin, or vehicle for their in vitro MICs against ME/PI/TZ and its constituent single drugs to determine whether adaptation occurred during passage in vivo. All four tested isolates of MRSA N315 had identical MICs for the triple ME/PI/TZ and all constituent drugs, and thus identical synergy (Table 6B).
as §1, §2

[6] = 67 mg/kg (of each) every 8 hrs SC

Compound: Cc1cc(C)nc(NC(=O)NS(=O)(=O)c2ccccc2C(=O)O)n1 [Sulfometuron]
- MIC [1]: > 200 µg/mL

Compound: CC[C@H]1OC(=O)[C@H](C)[C@@H](O[C@H]2C[C@@](C)(OC)[C@@H](O)[C@H](C)O2)[C@H](C)[C@@H](O[C@@H]2O[C@H](C)C[C@H](N(C)C)[C@H]2O)[C@](C)(O)C[C@@H](C)CN(C)[C@H](C)[C@@H](O)[C@]1(C)O [Azithromycin]
- MIC ([1]; single compounds): > 200 µg/mL

Compound: Bleomycin
- MIC in MRSA N315 ([1]; single compounds): >500 µg/mL

Compound: Colistin
- MIC in MRSA N315 ([1]; single compounds): 500 µg/mL

Compound: CCN(CC)C(=S)SSC(=S)N(CC)CC [Disulfiram]
- MIC [1]: 11.1 µg/mL

Compound: CC1(C)S[C@@H]2[C@H](NC(=O)[C@H](N)c3ccc(O)cc3)C(=O)N2[C@H]1C(=O)O [amoxicillin]
- collateral effect on susceptibility ([2]; MRSA N315 after prior exposure/adaptation to meropenem): sensitizing

Compound: CC(=O)NC[C@H]1CN(c2ccc(N3CCOCC3)c(F)c2)C(=O)O1 [Linezolid]
- MIC ([1]; single compounds): 3.7 µg/mL
- bacteria in blood taken at 11 h post-infection ([3]; 30 mg/kg): zero plated colonies and no growth in liquid cultures
- Result (Alive/Dead) ([3]; 30 mg/kg every 8 hrs SC): Alive
- Result (survivors per group) ([3]; 30 mg/kg every 8 hrs SC): 6/6
- survival for six days post-infection ([3]; 30 mg/kg, n=6/group): All mice
- p versus vehicle (Fisher's exact test) ([3]; survival, n=6/group): 0.02

Compound: CN[C@H](CC(C)C)C(=O)N[C@H]1C(=O)N[C@@H](CC(N)=O)C(=O)N[C@H]2C(=O)N[C@H]3C(=O)N[C@H](C(=O)N[C@H](C(=O)O)c4cc(O)cc(O)c4-c4cc3ccc4O)[C@H](O)c3ccc(c(Cl)c3)Oc3cc2cc(c3O[C@@H]2O[C@H](CO)[C@@H](O)[C@H](O)[C@H]2O[C@H]2C[C@](C)(N)[C@H](O)[C@H](C)O2)Oc2ccc(cc2Cl)[C@H]1O [Vancomycin]
- MIC [1]: 0.4 µg/mL

Compound: C[C@]1(Cn2ccnn2)[C@H](C(=O)O)N2C(=O)C[C@H]2S1(=O)=O [Tazobactam]
- MIC ([1]; single compounds): 128 µg/mL
- collateral effect on susceptibility ([2]; MRSA N315 after exposure to any other single or double compounds): no collateral sensitivity
- induction of mecA expression [4]: strong inducer of mecA
- Result (Alive/Dead) [3, 6]: Dead
- Result (survivors per group) [3, 6]: 0/6
- mice that succumbed to the infection ([3]; most within 48 h, 67 mg/kg (of each)): all mice
- MIC ([5]; Staphylococcus aureus, MRSA): 100 µg/mL
- MIC ([5]; Wild-type N315): 100 µg/mL
- MIC ([5]; colonies from mice given PI): 100 µg/mL
- MIC ([5]; colonies from mice given Vehicle): 100 µg/mL

Compound: CN(C)c1cc(NC(=O)CNC(C)(C)C)c(O)c2c1C[C@H]1C[C@H]3[C@H](N(C)C)C(O)=C(C(N)=O)C(=O)[C@@]3(O)C(O)=C1C2=O [Tigecycline]
- MIC [1]: 0.4 µg/mL

Continued, values first:

- MIC ([1]; single compounds): > 500 µg/mL
Compound: NC[C@H]1O[C@H](O[C@H]2[C@H](O)[C@@H](O[C@H]3O[C@H](CO)[C@@H](O)[C@H](N)[C@H]3O)[C@H](N)C[C@@H]2N)[C@H](N)C[C@@H]1O [Tobramycin]

- MIC ([1]; single compounds): 0.4 µg/mL
Compound: CO[C@H]1/C=C/O[C@@]2(C)Oc3c(C)c(O)c4c(O)c(c(/C=N/N5CCN(C)CC5)c(O)c4c3C2=O)NC(=O)/C(C)=C\C=C\[C@H](C)[C@H](O)[C@@H](C)[C@@H](O)[C@@H](C)[C@H](OC(C)=O)[C@@H]1C [Rifampin]

- MIC ([1]; single compounds): 6.2 µg/mL
Compound: COc1cc(Cc2cnc(N)nc2N)cc(OC)c1OC [Trimethoprim]

- MIC ([1]; single compounds): 100 µg/mL
Compound: Cc1cc(NS(=O)(=O)c2ccc(N)cc2)no1 [Sulfamethoxazole]

- MIC ([1]; single compounds): 100 µg/mL
Compound: CO/N=C(\C(=O)N[C@@H]1C(=O)N2C(C(=O)[O-])=C(C[N+]3(C)CCCC3)CS[C@H]12)c1csc(N)n1 [Cefepime]

- MIC ([1]; single compounds): 11.1 µg/mL
Compound: O=C(N[C@H](CO)[C@H](O)c1ccc([N+](=O)[O-])cc1)C(Cl)Cl [Chloramphenicol]

- MIC ([1]; single compounds): > 500 µg/mL
Compound: CCC[C@@H]1C[C@@H](C(=O)N[C@@H]([C@H]2O[C@H](SC)[C@H](O)[C@@H](O)[C@H]2O)[C@H](C)Cl)N(C)C1 [Clindamycin]

- MIC ([1]; single compounds): 0.4 µg/mL
Compound: C/C(=C\C(=O)OCCCCCCCCC(=O)O)C[C@@H]1OC[C@H](C[C@@H]2O[C@H]2[C@@H](C)[C@H](C)O)[C@@H](O)[C@H]1O [Mupirocin]

- MIC ([1]; single compounds): 0.4 µg/mL
Compound: C[C@H]1COc2c(N3CCN(C)CC3)c(F)cc3c(=O)c(C(=O)O)cn1c23 [Levofloxacin]

- MIC ([1]; single compounds): > 200 µg/mL
Compound: Cc1ccc(C)c(OCCCC(C)(C)C(=O)O)c1 [Gemfibrozil]

- MIC ([1]; single compounds): > 500 µg/mL
Compound: C[C@H]1[C@H](NC(=O)/C(=N\OC(C)(C)C(=O)O)c2csc(N)n2)C(=O)N1S(=O)(=O)O [Aztreonam]

- MIC in MRSA N315 ([1]; single compounds): 56 µg/mL
Compound: N[C@@H]1CONC1=O [D-Cycloserine]
